Key:
[1] = target: T1, OBP::GQ20::SP-DS3, engineered from OBP-I (Sus scrofa, UniProt P81245); test: direct fluorescence titration with 1-AMA (ex […] nm, em […] nm), […] °C; Kd […] at […] °C; type: binding
T1 construct: fusion of OBP-I with a linker of 20 glycine-glutamine repeats (GQ20) and the anchor peptide SP-DS3 ([…]); His-tag at N-terminal
T1 sequence (P81245 1-157): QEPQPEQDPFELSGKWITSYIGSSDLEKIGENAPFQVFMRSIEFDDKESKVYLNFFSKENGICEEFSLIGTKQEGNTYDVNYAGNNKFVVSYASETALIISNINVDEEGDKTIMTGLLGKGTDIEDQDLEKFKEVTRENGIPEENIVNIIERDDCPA

[2] = target: T2, truncated OBP (tOBP), engineered from OBP-I (Sus scrofa, UniProt P81245, F44A/F66A); test: as above; type: binding
T2 construct: OBP-I with deletion of the first 16 residues of the N-terminal and F44A and F66A; His-tag at N-terminal
T2 sequence (P81245 17-157 F44A/F66A): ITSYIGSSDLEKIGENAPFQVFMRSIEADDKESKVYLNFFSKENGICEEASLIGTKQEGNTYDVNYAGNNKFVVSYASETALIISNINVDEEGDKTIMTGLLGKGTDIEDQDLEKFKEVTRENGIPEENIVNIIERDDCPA

Nc1cccc2cc3ccccc3cc12 [1-AMA, 1-aminoanthracene]
Kd [1]: 580 nM | Kd [2]: 450 nM
